Experimental data: article PMC5218480 (PLoS ONE, 2017)

System: MV-4-11 cells
Assay: Gene expression microarray analysis (Affymetrix PrimeView) and GSEA
Assay type: cell-based, human
Set-up: RFU PODN (11730768_x_at) / Fold change /veh PODN (11730768_x_at) / RFU LINC00158 (11744669_a_at) / Fold change /veh LINC00158 (11744669_a_at) / RFU DUSP10 (11751237_a_at) / Fold change /veh DUSP10 (11751237_a_at) / RFU ID3 (11757404_x_at) / Fold change /veh ID3 (11757404_x_at) / RFU PLEKHG5 (11737974_s_at) / Fold change /veh PLEKHG5 (11737974_s_at) / RFU LRRC4B (11730491_at) / Fold change /veh LRRC4B (11730491_at) / RFU GIMAP4 (11747438_a_at) / Fold change /veh GIMAP4 (11747438_a_at) / RFU KRT8 (11758183_x_at) / Fold change /veh KRT8 (11758183_x_at) / RFU CNN1 (11734310_a_at) / Fold change /veh CNN1 (11734310_a_at) / RFU VPS37D (11726825_at) / Fold change /veh VPS37D (11726825_at) / RFU C10orf10 (11716522_x_at) / Fold change /veh C10orf10 (11716522_x_at) / RFU KIR2DL2 /// KIR2DL4 /// KIR2DL5A /// KIR2DL5B /// KIR2DS1 /// KIR2DS2 /// KIR2DS3 /// KIR2DS4 /// KIR3DL3 /// KIR3DL3 /// KIR3DS1 (11738374_at) / Fold change /veh KIR2DL2 /// KIR2DL4 /// KIR2DL5A /// KIR2DL5B /// KIR2DS1 /// KIR2DS2 /// KIR2DS3 /// KIR2DS4 /// KIR3DL3 /// KIR3DL3 /// KIR3DS1 (11738374_at) / RFU C1QL1 (11718748_at) / Fold change /veh C1QL1 (11718748_at) / RFU TMPRSS4 (11747572_a_at) / Fold change /veh TMPRSS4 (11747572_a_at) / RFU HAMP (11756126_x_at) / Fold change /veh HAMP (11756126_x_at) / RFU RNFT2 (11725882_a_at) / Fold change /veh RNFT2 (11725882_a_at) / RFU NR4A2 (11747474_a_at) / Fold change /veh NR4A2 (11747474_a_at) / RFU ABCC12 (11746883_a_at) / Fold change /veh ABCC12 (11746883_a_at) / RFU TMEM136 (11760407_x_at) / Fold change /veh TMEM136 (11760407_x_at) / RFU CLDN22 /// WWC2 (11732394_at) / Fold change /veh CLDN22 /// WWC2 (11732394_at) / RFU HLA-DPB1 (11760878_x_at) / Fold change /veh HLA-DPB1 (11760878_x_at) / RFU SPINT1 (11716480_a_at) / Fold change /veh SPINT1 (11716480_a_at) / RFU GAP43 (11754022_s_at) / Fold change /veh GAP43 (11754022_s_at) / RFU A4GNT (11735810_at) / Fold change /veh A4GNT (11735810_at) / RFU PRB3 (11715151_x_at) / Fold change /veh PRB3 (11715151_x_at) / RFU TUBB4B (11761932_at) / Fold change /veh TUBB4B (11761932_at) / RFU CAPN14 (11732068_a_at) / Fold change /veh CAPN14 (11732068_a_at) / RFU TMCC2 (11721928_a_at) / Fold change /veh TMCC2 (11721928_a_at) / RFU IRGQ (11745062_a_at) / Fold change /veh IRGQ (11745062_a_at) / RFU FAM174B (11720279_a_at) / Fold change /veh FAM174B (11720279_a_at) / RFU TMPRSS4 (11748680_a_at) / Fold change /veh TMPRSS4 (11748680_a_at) / RFU FAM212B (11763350_a_at) / Fold change /veh FAM212B (11763350_a_at) / RFU PLEKHG5 (11743358_a_at) / Fold change /veh PLEKHG5 (11743358_a_at) / RFU ZSCAN30 (11745921_a_at) / Fold change /veh ZSCAN30 (11745921_a_at) / RFU CMKLR1 (11741424_a_at) / Fold change /veh CMKLR1 (11741424_a_at) / RFU LOC101060620 /// MAPK8IP1 (11723275_at) / Fold change /veh LOC101060620 /// MAPK8IP1 (11723275_at) / RFU SPTSSB (11747773_x_at) / Fold change /veh SPTSSB (11747773_x_at) / RFU PRSS12 (11739890_at) / Fold change /veh PRSS12 (11739890_at) / RFU BIN1 (11741810_x_at) / Fold change /veh BIN1 (11741810_x_at) / RFU WNT11 (11732464_a_at) / Fold change /veh WNT11 (11732464_a_at) / RFU C10orf10 (11716521_a_at) / Fold change /veh C10orf10 (11716521_a_at) / RFU C5orf56 (11738089_at) / Fold change /veh C5orf56 (11738089_at) / RFU CYB561 (11721691_x_at) / Fold change /veh CYB561 (11721691_x_at) / RFU ANKRD19P (11752326_a_at) / Fold change /veh ANKRD19P (11752326_a_at) / RFU OR2T12 /// OR2T33 /// OR2T8 (11738714_s_at) / Fold change /veh OR2T12 /// OR2T33 /// OR2T8 (11738714_s_at) / RFU VCAN (11748164_a_at) / Fold change /veh VCAN (11748164_a_at) / RFU JSRP1 (11732532_at) / Fold change /veh JSRP1 (11732532_at) / RFU KRTAP10-11 (11738290_x_at) / Fold change /veh KRTAP10-11 (11738290_x_at) / RFU MYO3A (11730013_a_at) / Fold change /veh MYO3A (11730013_a_at) / RFU EBF3 (11725865_a_at) / Fold change /veh EBF3 (11725865_a_at) / RFU CAMK2N1 (11719241_x_at) / Fold change /veh CAMK2N1 (11719241_x_at) / RFU C5orf56 (11738088_a_at) / Fold change /veh C5orf56 (11738088_a_at) / RFU OLFML3 (11715873_a_at) / Fold change /veh OLFML3 (11715873_a_at) / RFU LOC100653217 /// NTM (11731650_a_at) / Fold change /veh LOC100653217 /// NTM (11731650_a_at) / RFU MAPK11 (11762145_a_at) / Fold change /veh MAPK11 (11762145_a_at) / RFU FIZ1 (11724087_x_at) / Fold change /veh FIZ1 (11724087_x_at) / RFU OASL (11726364_x_at) / Fold change /veh OASL (11726364_x_at) / RFU SOX15 (11748057_x_at) / Fold change /veh SOX15 (11748057_x_at) / RFU CD79A (11719716_a_at) / Fold change /veh CD79A (11719716_a_at) / RFU HIST1H1D (11736915_at) / Fold change /veh HIST1H1D (11736915_at) / RFU CASKIN2 (11723855_a_at) / Fold change /veh CASKIN2 (11723855_a_at) / RFU LOC730098 (11760151_x_at) / Fold change /veh LOC730098 (11760151_x_at) / RFU OR4N2 (11742367_at) / Fold change /veh OR4N2 (11742367_at) / RFU PRRT2 (11749266_a_at) / Fold change /veh PRRT2 (11749266_a_at) / RFU SNX32 (11753110_a_at) / Fold change /veh SNX32 (11753110_a_at) / RFU CDHR5 (11726645_a_at) / Fold change /veh CDHR5 (11726645_a_at) / RFU RCAN1 (11760418_a_at) / Fold change /veh RCAN1 (11760418_a_at) / RFU FAM167A (11723789_a_at) / Fold change /veh FAM167A (11723789_a_at) / RFU FAM26E (11764081_at) / Fold change /veh FAM26E (11764081_at) / RFU ISYNA1 (11749810_s_at) / Fold change /veh ISYNA1 (11749810_s_at) / RFU ACY1 (11761880_at) / Fold change /veh ACY1 (11761880_at) / RFU 11764098_at / Fold change /veh 11764098_at / RFU SAMD14 (11745864_x_at) / Fold change /veh SAMD14 (11745864_x_at) / RFU NPB (11741838_a_at) / Fold change /veh NPB (11741838_a_at) / RFU TMPRSS6 (11731388_a_at) / Fold change /veh TMPRSS6 (11731388_a_at) / RFU KRTAP10-2 (11738614_at) / Fold change /veh KRTAP10-2 (11738614_at) / RFU ARHGAP8 /// PRR5-ARHGAP8 (11727945_x_at) / Fold change /veh ARHGAP8 /// PRR5-ARHGAP8 (11727945_x_at) / RFU KRTAP5-7 /// NADSYN1 (11734609_at) / Fold change /veh KRTAP5-7 /// NADSYN1 (11734609_at) / RFU RASL12 (11751679_a_at) / Fold change /veh RASL12 (11751679_a_at) / RFU CDKN2B (11736163_a_at) / Fold change /veh CDKN2B (11736163_a_at) / RFU PRF1 (11729649_at) / Fold change /veh PRF1 (11729649_at) / RFU, ZNF638 /// ZNF638-IT1 / Fold change vs veh, ZNF638 /// ZNF638-IT1 / RFU, PANK3 / Fold change vs veh, PANK3 / RFU, SH3YL1 / Fold change vs veh, SH3YL1 / RFU, ZEB2 / Fold change vs veh, ZEB2 / RFU, NRIP1 / Fold change vs veh, NRIP1 / RFU, PTTG1IP / Fold change vs veh, PTTG1IP / RFU, CAPN2 / Fold change vs veh, CAPN2 / RFU, MED14 / Fold change vs veh, MED14 / RFU, SNORA58 / Fold change vs veh, SNORA58 / RFU, C1orf63 / Fold change vs veh, C1orf63 / RFU, LRRFIP1 / Fold change vs veh, LRRFIP1 / RFU, NDUFAF7 / Fold change vs veh, NDUFAF7 / RFU, SLC12A2 / Fold change vs veh, SLC12A2 / RFU, IBTK / Fold change vs veh, IBTK / RFU, ESF1 / Fold change vs veh, ESF1 / Fold change vs veh, TMEM50B / RFU, TAOK1 / Fold change vs veh, TAOK1 / RFU, ACBD3 / Fold change vs veh, ACBD3 / RFU, TMA16 / Fold change vs veh, TMA16 / RFU, RWDD3 / Fold change vs veh, RWDD3 / RFU, BCAT1 / Fold change vs veh, BCAT1 / RFU, EDEM3 / Fold change vs veh, EDEM3 / RFU, TMEM33 / Fold change vs veh, TMEM33 / RFU, WDR75 / Fold change vs veh, WDR75 / RFU, AHCTF1 / Fold change vs veh, AHCTF1 / RFU, TFRC / Fold change vs veh, TFRC / RFU, ZDHHC17 / Fold change vs veh, ZDHHC17 / RFU, NOM1 / Fold change vs veh, NOM1 / RFU, ARL8B / Fold change vs veh, ARL8B / RFU, ZBTB11 / Fold change vs veh, ZBTB11 / RFU, TAMM41 / Fold change vs veh, TAMM41 / RFU, KIAA1704 /// LOC100996395 / Fold change vs veh, KIAA1704 /// LOC100996395 / RFU, ING1 / Fold change vs veh, ING1 / RFU, TRMT61B / Fold change vs veh, TRMT61B / RFU, FUBP3 / Fold change vs veh, FUBP3 / RFU, TP53 / Fold change vs veh, TP53 / RFU, TNKS2 / Fold change vs veh, TNKS2 / RFU, ZFP14 / Fold change vs veh, ZFP14 / RFU, ACTR2 / Fold change vs veh, ACTR2 / RFU, PPP3R1 / Fold change vs veh, PPP3R1 / RFU, PIK3R1 / Fold change vs veh, PIK3R1 / RFU, HNRNPA1 / Fold change vs veh, HNRNPA1 / RFU, RNF170 / Fold change vs veh, RNF170 / RFU, ZNF28 / Fold change vs veh, ZNF28 / RFU, RNGTT / Fold change vs veh, RNGTT / RFU, OGT / Fold change vs veh, OGT / RFU, BRD1 / Fold change vs veh, BRD1 / RFU, MARS / Fold change vs veh, MARS / RFU, ZNF655 / Fold change vs veh, ZNF655 / RFU, FAHD1 / Fold change vs veh, FAHD1 / RFU, BDP1 / Fold change vs veh, BDP1 / RFU, LRRCC1 / Fold change vs veh, LRRCC1 / RFU, ARID1A / Fold change vs veh, ARID1A / RFU, ZNF146 / Fold change vs veh, ZNF146 / RFU, ZNF330 / Fold change vs veh, ZNF330 / RFU, GPN3 / Fold change vs veh, GPN3 / RFU, C9orf123 / Fold change vs veh, C9orf123 / RFU, N4BP2L2 / Fold change vs veh, N4BP2L2 / RFU, ARFIP1 / Fold change vs veh, ARFIP1 / RFU, FAM179B / Fold change vs veh, FAM179B / RFU, BCL10 / Fold change vs veh, BCL10 / RFU, UHRF1BP1L / Fold change vs veh, UHRF1BP1L / RFU, BET1 / Fold change vs veh, BET1 / RFU, CNOT2 / Fold change vs veh, CNOT2 / RFU, ZNF268 / Fold change vs veh, ZNF268 / Fold change vs veh, ZNF507 / RFU, DGCR2 / Fold change vs veh, DGCR2 / RFU, WDSUB1 / Fold change vs veh, WDSUB1 / Fold change vs veh, HSP90B1 /// MIR3652 / RFU, ADSS / Fold change vs veh, ADSS / RFU, GK / Fold change vs veh, GK / RFU, ZNF148 / Fold change vs veh, ZNF148 / RFU, TAF9 / Fold change vs veh, TAF9 / RFU, SLC1A5 / Fold change vs veh, SLC1A5 / RFU, SLMO2 / Fold change vs veh, SLMO2 / RFU, ABCC4 / Fold change vs veh, ABCC4 / RFU, LOC101060439 /// RAP1B / Fold change vs veh, LOC101060439 /// RAP1B / RFU, RFX7 / Fold change vs veh, RFX7 / RFU, GTPBP10 / Fold change vs veh, GTPBP10 / RFU, CNEP1R1 / Fold change vs veh, CNEP1R1 / RFU, BIVM-ERCC5 /// ERCC5 / Fold change vs veh, BIVM-ERCC5 /// ERCC5 / RFU, ILF3 / Fold change vs veh, ILF3 / RFU 11762660_at / Fold change /veh 11762660_at / RFU VCAN (11757783_s_at) / Fold change /veh VCAN (11757783_s_at) / RFU DDX43 (11728927_at) / Fold change /veh DDX43 (11728927_at) / RFU KRT8 (11758188_x_at) / Fold change /veh KRT8 (11758188_x_at) / RFU NKD1 (11759106_at) / Fold change /veh NKD1 (11759106_at) / RFU SRD5A1 (11742802_a_at) / Fold change /veh SRD5A1 (11742802_a_at) / RFU TPSAB1 /// TPSB2 (11721975_s_at) / Fold change /veh TPSAB1 /// TPSB2 (11721975_s_at) / RFU GSTM3 (11746129_a_at) / Fold change /veh GSTM3 (11746129_a_at) / RFU IL23R (11737362_x_at) / Fold change /veh IL23R (11737362_x_at) / RFU TMEM51 (11727254_a_at) / Fold change /veh TMEM51 (11727254_a_at) / RFU PIWIL2 (11732686_x_at) / Fold change /veh PIWIL2 (11732686_x_at) / RFU ORM1 (11744905_x_at) / Fold change /veh ORM1 (11744905_x_at) / RFU CCDC152 (11743942_at) / Fold change /veh CCDC152 (11743942_at) / RFU ECM1 (11717891_a_at) / Fold change /veh ECM1 (11717891_a_at) / RFU IL23R (11748794_a_at) / Fold change /veh IL23R (11748794_a_at) / RFU TNFAIP8L3 (11732012_x_at) / Fold change /veh TNFAIP8L3 (11732012_x_at) / RFU MBOAT4 (11741988_at) / Fold change /veh MBOAT4 (11741988_at) / RFU 11764193_at / Fold change /veh 11764193_at / RFU TMEM53 (11763286_at) / Fold change /veh TMEM53 (11763286_at) / RFU MAGEB2 (11727129_at) / Fold change /veh MAGEB2 (11727129_at) / RFU TMEM200A (11744735_a_at) / Fold change /veh TMEM200A (11744735_a_at) / RFU CCDC152 (11751479_a_at) / Fold change /veh CCDC152 (11751479_a_at) / RFU FAM211A (11726209_a_at) / Fold change /veh FAM211A (11726209_a_at) / RFU RGS16 (11746705_a_at) / Fold change /veh RGS16 (11746705_a_at) / RFU VCAN (11755009_s_at) / Fold change /veh VCAN (11755009_s_at) / RFU RHOB (11743442_s_at) / Fold change /veh RHOB (11743442_s_at) / RFU RGS16 (11720943_a_at) / Fold change /veh RGS16 (11720943_a_at) / RFU RGS16 (11720944_at) / Fold change /veh RGS16 (11720944_at) / RFU, VPS4B / Fold change vs veh, VPS4B / RFU, CREB1 / Fold change vs veh, CREB1 / RFU, DNAJC13 / Fold change vs veh, DNAJC13 / RFU, GNAQ / Fold change vs veh, GNAQ / RFU, CDK5R1 / Fold change vs veh, CDK5R1 / RFU, ZRANB3 / Fold change vs veh, ZRANB3 / RFU, CUL4A / Fold change vs veh, CUL4A / RFU, CCNY / Fold change vs veh, CCNY / RFU, UFL1 / Fold change vs veh, UFL1 / RFU, COG3 / Fold change vs veh, COG3 / RFU, DIAPH2 / Fold change vs veh, DIAPH2 / RFU, SKA2 / Fold change vs veh, SKA2 / RFU, AFF3 / Fold change vs veh, AFF3 / RFU, LMF1 / Fold change vs veh, LMF1 / RFU, IPO11 / Fold change vs veh, IPO11 / RFU, DFFB / Fold change vs veh, DFFB / RFU, FOXP1 / Fold change vs veh, FOXP1 / RFU, CARD8 / Fold change vs veh, CARD8 / RFU, STRN3 / Fold change vs veh, STRN3 / RFU, ADK / Fold change vs veh, ADK / RFU, RASSF2 / Fold change vs veh, RASSF2 / RFU, WIPF1 / Fold change vs veh, WIPF1 / RFU, LARP1B / Fold change vs veh, LARP1B / RFU, RASA1 / Fold change vs veh, RASA1 / RFU, RB1 / Fold change vs veh, RB1 / RFU, PPFIA1 / Fold change vs veh, PPFIA1 / RFU, MAT2A / Fold change vs veh, MAT2A / RFU, CCT5 / Fold change vs veh, CCT5 / RFU, WDR92 / Fold change vs veh, WDR92 / RFU, CUX1 / Fold change vs veh, CUX1 / RFU, TTC7A / Fold change vs veh, TTC7A / RFU, TMEM135 / Fold change vs veh, TMEM135 / RFU, DEPTOR / Fold change vs veh, DEPTOR / RFU, CPM / Fold change vs veh, CPM / RFU, DNAJB6 / Fold change vs veh, DNAJB6 / RFU, CACNA2D3 / Fold change vs veh, CACNA2D3 / RFU, DTX4 / Fold change vs veh, DTX4 / RFU, TFCP2 / Fold change vs veh, TFCP2 / RFU, GMCL1 /// GMCL1P1 / Fold change vs veh, GMCL1 /// GMCL1P1 / RFU, AEBP2 / Fold change vs veh, AEBP2 / RFU, SNHG1 /// SNORD22 /// SNORD25 /// SNORD26 /// SNORD27 /// SNORD28 /// SNORD29 /// SNORD31 / Fold change vs veh, SNHG1 /// SNORD22 /// SNORD25 /// SNORD26 /// SNORD27 /// SNORD28 /// SNORD29 /// SNORD31 / Fold change (Aza/veh), C12orf56 (ProbeSet 11735607_a_at) / Fold change (ACY-1035/veh), C12orf56 (ProbeSet 11735607_a_at) / Fold change (Aza/veh), FGFR1OP (ProbeSet 11751329_s_at) / Fold change (ACY-1035/veh), FGFR1OP (ProbeSet 11751329_s_at) / Fold change (Aza/veh), VPS36 (ProbeSet 11739960_a_at) / Fold change (ACY-1035/veh), VPS36 (ProbeSet 11739960_a_at) / RFU SYPL1 (11715823_x_at) / Fold change /veh SYPL1 (11715823_x_at) / RFU IGFBP7 (11715501_s_at) / Fold change /veh IGFBP7 (11715501_s_at) / RFU REEP3 (11722064_at) / Fold change /veh REEP3 (11722064_at) / RFU IGLL1 (11728026_x_at) / Fold change /veh IGLL1 (11728026_x_at): dose or concentration left out as unconfirmed
Conditions: MV-4-11 cells, 48 hours

Nc1ccc(-c2cccs2)cc1NC(=O)c1ccc2c(c1)cc(C1CC1)n2CCN1CCOCC1 [ACY-1035]
RFU PRB3 (11715151_x_at): 8.09 RFU
